Values after ≈ are worked out from the molar mass of the structure shown. Like-named read-outs stand apart in the source and are kept apart here.
What was measured:
[1] = High throughput formulation screening: solubility of compound in 96 formulations (5 μL scale, image capture); format: physicochemical; details: for solubility: thermodynamic from solid
Description: The solubility of the compound in the various excipients is then evaluated by comparing the captured images (e.g., first, second, third, and fourth images). […] All stock solutions were prepared with ultrapure ASTM Type I water and sterile-filtered using a 0.22 micron filter. The solutions were then attached to the MATRIX MAKER liquid-handling robot for sterile path, positive pressure dispensation into an SBS (Society for Biomolecular Screening) standard-sized 96 deep well plates. The screening formulations are defined in the CRYSTAL MINER software, which drives the MATRIX MAKER and allows for the rapid development of refinement screens for the optimization of lead hits. Once the formulations have been dispensed, the plate is sealed and centrifuged at 2000 rpm to ensure that each well contains a homogeneous solution. […] The DROP MAKER micro-scale liquid handler then dispenses 5 μL of the compound solution into a 96-well SBS format plate. […] Images were then captured of each well by the CRYSTAL MONITOR workstation (Session 1). Then 5 μL of each formulation screening solution were added to separate wells and images were captured for each well (Session 2) as above. Following image capture, the plate was heated to 45° C. for 30 minutes, then agitated for 10 minutes at room temperature during cool down. Additional images are captured on day one (t=1, Session 3) and day three (t=3, Session 4). Images and data annotation are exported to Excel for final report generation. The solubility of triclocarban in the formulations screening set (96 conditions) was obtained after the high throughput screening at target solubility of 10 mg/mL by the method described above: […]

[2] = cited from earlier work

O=C(Nc1ccc(Cl)cc1)Nc1ccc(Cl)c(Cl)c1 [TCC, 3,4,4′-trichlorocarbanilide]
solubility in formulation ([1]; 10 mg/mL, IV dosing solution PEG 300/polysorbate 80/EtOH/SGF (40/5/5/50)): nearly completely dissolved
solubility in formulation ([1]; 10 mg/mL, IV dosing solution PEG 300/polysorbate 80/SGF (45/5/50)): nearly completely dissolved
solubility in formulation ([1]; 10 mg/mL, NMP/polysorbate 80 (9/1)): easily dissolved
solubility in formulation ([1]; 10 mg/mL, PEG 300/polysorbate 80 (9/1)): easily dissolved
solubility in formulation ([1]; 10 mg/mL, PEG 400/polysorbate 80/EtOH (8/1/1)): easily dissolved
solubility in formulation ([1]; 10 mg/mL, PEG 400/polysorbate (3/1)): easily dissolved
solubility in formulation ([1]; 10 mg/mL, SEDDS carpryol 90/PEG 400/cremophor EL (4/3/3)): dissolved
solubility in formulation ([1]; 10 mg/mL, SEDDS labrafac CC/imwitor 988/cremophor (25/27/48)): dissolved
solubility in formulation ([1]; 10 mg/mL, SEDDS sesame oil/maisine 35-1/polysorbate 80 (25/27/48)): dissolved
solubility in formulation ([1]; 10 mg/mL, SEDDS soybean oil/maisine 35-1/polysorbate 80/EtOH (35/20/35/10)): dissolved
solubility in formulation ([1]; 10 mg/mL, cosolvent PEG 400/EtOH (7/3)): easily dissolved
solubility in formulation ([1]; 10 mg/mL, cosolvent PEG 400/EtOH/PG (4/1/5)): easily dissolved
solubility ([1]; Carpryol 90 (formulation screening solution), oil or lipid, target 10 mg/mL, Carpryol 90): ~10000 µg/mL (≈ 31.7 mM)
solubility ([1]; Cremophor EL (formulation screening solution), aqueous with cosolvent or surfactant or cyclodextrin, target 10 mg/mL, Cremophor EL): ~10000 µg/mL (≈ 31.7 mM)
solubility ([1]; Labrafil M 1944 CS (formulation screening solution), oil or lipid, target 10 mg/mL, Labrafil M 1944 CS): ~10000 µg/mL (≈ 31.7 mM)
solubility ([1]; Labrasol (formulation screening solution), aqueous with cosolvent or surfactant or cyclodextrin, target 10 mg/mL, Labrasol): ~10000 µg/mL (≈ 31.7 mM)
solubility ([1]; N-methyl-2-pyrrolidinone (formulation screening solution), organic solvent or mixture, target 10 mg/mL, N-methyl-2-pyrrolidinone): ~10000 µg/mL (≈ 31.7 mM)
solubility ([1]; Softigen 767 (formulation screening solution), aqueous with cosolvent or surfactant or cyclodextrin, target 10 mg/mL, Softigen 767): ~10000 µg/mL (≈ 31.7 mM)
solubility ([1]; lauroglycol FCC (formulation screening solution), oil or lipid, target 10 mg/mL, lauroglycol FCC): ~10000 µg/mL (≈ 31.7 mM)
solubility ([1]; peppermint oil (formulation screening solution), oil or lipid, target 10 mg/mL, peppermint oil): ~10000 µg/mL (≈ 31.7 mM)
solubility in formulation ([1]; target 10 mg/mL, 20% TPGS): partially dissolved
solubility in formulation ([1]; target 10 mg/mL, 20% povidone): neither glycerine, safflower oil, sesame oil, nor 20% povidone had any effect
solubility in formulation ([1]; target 10 mg/mL, Capmul MCM C8): dissolve TCC completely
solubility in formulation ([1]; target 10 mg/mL, HPbCD): partially dissolved
solubility in formulation ([1]; target 10 mg/mL, Imwitor 988): dissolve TCC completely
solubility in formulation ([1]; target 10 mg/mL, PEG 300): dissolve TCC completely
solubility in formulation ([1]; target 10 mg/mL, PEG 400): dissolve TCC completely
solubility in formulation ([1]; target 10 mg/mL, Polysorbate 80): dissolve TCC completely
solubility in formulation ([1]; target 10 mg/mL, RMbCD): partially dissolved
solubility in formulation ([1]; target 10 mg/mL, adjustment of pH to between 2 and 10): no effect
solubility in formulation ([1]; target 10 mg/mL, corn oil): partially dissolved
solubility in formulation ([1]; target 10 mg/mL, dimethylacetamide): dissolve TCC completely
solubility in formulation ([1]; target 10 mg/mL, glycerine): neither glycerine, safflower oil, sesame oil, nor 20% povidone had any effect
solubility in formulation ([1]; target 10 mg/mL, imwitor 380): partially dissolved
solubility in formulation ([1]; target 10 mg/mL, labrafac CC): partially dissolved
solubility in formulation ([1]; target 10 mg/mL, maisine 35-1): partially dissolved
solubility in formulation ([1]; target 10 mg/mL, neobee M-5): partially dissolved
solubility in formulation ([1]; target 10 mg/mL, oleic acid): partially dissolved
solubility in formulation ([1]; target 10 mg/mL, safflower oil): neither glycerine, safflower oil, sesame oil, nor 20% povidone had any effect
solubility in formulation ([1]; target 10 mg/mL, sesame oil): neither glycerine, safflower oil, sesame oil, nor 20% povidone had any effect
solubility in formulation ([1]; target 10 mg/mL, soybean oil): partially dissolved
solubility ([2]; 20% RMbCD with additives): about 5 mg/mL
solubility in organic solvents ([2]; acetone): soluble
solubility in organic solvents ([2]; propylene glycol): to some extent
intrinsic solubility (S0) ([2]; pure water, room temperature): less than 50 ng/ml
solubility in water ([2]; water): water-insoluble

Reference: patent US20070015174A1, “High throughput formulation screening of drug candidates” (priority 2005, published 2007)
